Molecular target: T1, human recombinant OX2 (hOX2) receptor expressed in CHO cells (Homo sapiens, UniProt O43614)
T1 construct: host or cells: CHO cells (hOX2-CHO)
T1 sequence (O43614 1-444): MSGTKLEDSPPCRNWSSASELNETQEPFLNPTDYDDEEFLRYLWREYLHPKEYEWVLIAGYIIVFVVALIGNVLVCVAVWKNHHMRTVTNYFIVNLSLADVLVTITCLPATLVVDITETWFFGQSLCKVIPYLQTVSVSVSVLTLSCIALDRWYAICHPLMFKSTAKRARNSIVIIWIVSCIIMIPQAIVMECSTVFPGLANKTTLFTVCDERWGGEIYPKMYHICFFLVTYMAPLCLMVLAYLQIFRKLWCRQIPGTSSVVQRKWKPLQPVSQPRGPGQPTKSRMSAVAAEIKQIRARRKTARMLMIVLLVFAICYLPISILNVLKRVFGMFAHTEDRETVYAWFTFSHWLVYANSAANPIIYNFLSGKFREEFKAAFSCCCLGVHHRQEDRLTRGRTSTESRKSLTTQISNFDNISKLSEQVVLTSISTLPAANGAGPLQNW
Experiment: IP-1 accumulation assay (IP-One HTRF) in hOX2-CHO cells
Format: cell-based
Settings: 60 min at 37° C., 11 points CRC, response as % of maximal OX-A response
Procedure: The accumulation of Inositol-1 Monophosphate (IP-1) was measured using IP-One HTRF® Terbium cryptate based assay (Cisbio) in human recombinant OX1 (hOX1) and at OX2 (hOX2) receptors expressed in CHO cells (DiscoverX) according to the manufacturer's instructions for cells tested in suspension.
hOX1-CHO and hOX2-CHO cells were seeded into white 384-well plates at a density of 20,000 cells/well in Hank's Balanced Salt Solution (HBSS) containing 20 mM HEPES pH 7.4, 50 mM, LiCl and 0.1% and Bovine Serum Albumin (BSA).
Compounds of the present disclosure were tested in a 11 points concentration response curve (CRC) serially diluted in neat DMSO at 200 fold concentrations and added by Echo acoustic liquid handling (Labcyte) to the cells (0.5% DMSO final in the assay). After 60 min of incubation at 37° C. detection reagents, IP1-d2 tracer and anti-IP1-cryptate were diluted in lysis buffer according to the manufacturer's descriptions and added to the cells.
Following 60 min incubation at room temperature, time-resolved fluorescence (HTRF) was measured at 615 nm and 665 nm by Envision Multilabel reader (Perkin Elmer) and the HTRF ratio (A665/A615x104) was calculated.
The IP-1 accumulation response was expressed as percentage of the maximal OX-A response.
Curve fitting and EC50 estimations were carried out using a four-parameter logistic model using XLfit Software. Mean data of EC50 are calculated from at least two independent experiments performed in duplicates.
In the Tables, below Category A corresponds to compounds displaying an […]<100 nM, Category B between 100 nM and 1,000 nM, Category C between 1,000 nM and 10,000 nM and Category D above 10,000 nM.

Cc1cc(C(CNS(=O)(=O)CF)CO[C@H]2CC[C@@H](c3cccc(F)c3)CC2)c(=O)n(C)c1 (single isomer, unassigned; isomer 1) [Example 5n, (R or S) N-[2-(1,5-dimethyl-2-oxo-1,2-dihydropyridin-3-yl)-3-{[(CIS)-4-(3-fluorophenyl)cyclohexyl]oxy}propyl]-1-fluoromethanesulfonamide—Isomer 1]
EC50: < 100 nM

Cc1cc(C(CNS(=O)(=O)N(C)C)CO[C@H]2CC[C@@H](c3cccc(F)c3)CC2)c(=O)n(C)c1 (single isomer, unassigned; isomer 1) [Example 5r, (R or S) 3-[1-[(dimethylsulfamoyl)amino]-3-{[(CIS)-4-(3-fluorophenyl)cyclohexyl]oxy}propan-2-yl]-1,5-dimethyl-1,2-dihydropyridin-2-one—Isomer 1]
EC50: < 100 nM

Cc1cc(C(CNS(C)(=O)=O)CO[C@H]2CC[C@@H](c3cccc(F)c3)CC2)c(=O)n(C(F)F)c1 (single isomer, unassigned; isomer 1) [Example 5y, (R or S) N-[2-[1-(difluoromethyl)-5-methyl-2-oxo-1,2-dihydropyridin-3-yl]-3-{[(CIS)-4-(3-fluorophenyl)cyclohexyl]oxy}propyl]methanesulfonamide—Isomer 1]
EC50: < 100 nM

CS(=O)(=O)NCC(CO[C@H]1CC[C@@H](c2ccccc2)CC1)n1ccccc1=O (single isomer, unassigned; isomer 2) [Example 1b, (S or R) N-[2-(2-oxo-1,2-dihydropyridin-1-yl)-3-{[(CIS)-4-phenylcyclo-hexyl]oxy}propyl] methane-sulfonamide- Isomer 2]
EC50: > 10000 nM

Cc1cccn(C(CNS(C)(=O)=O)CO[C@H]2CC[C@@H](c3ccccc3)CC2)c1=O (single isomer, unassigned; isomer 2) [Example 1e, (S or R) N-[(2R)-2-(3-methyl-2-oxo-1,2-dihydropyridin-1-yl)-3-{[(CIS)-4-phenylcyclo-hexyl]oxy}propyl] methane-sulfonamide- Isomer 2]
EC50: 100 to 1000 nM

Cc1ccn(C(CNS(C)(=O)=O)CO[C@H]2CC[C@@H](c3ccccc3)CC2)n1 (single isomer, unassigned; isomer 2) [Example 2ac, (S or R) N-[2-(3-methyl-1H-pyrazol-1-yl)-3-{[(CIS)-4-phenylcyclohexyl]oxy}propyl]methanesulfonamide-Isomer 2]
EC50: > 10000 nM

Cc1ccnn1C(CNS(C)(=O)=O)CO[C@H]1CC[C@@H](c2ccccc2)CC1 (single isomer, unassigned; isomer 2) [Example 2ae, (S or R) N-[2-(5-methyl-1H-pyrazol-1-yl)-3-{[(CIS)-4-phenylcyclohexyl]oxy}propyl]methanesulfonamide-Isomer 2]
EC50: > 10000 nM

Cc1cc(C)c(=O)n(C(CNS(C)(=O)=O)CO[C@H]2CC[C@@H](c3cccc(F)c3)CC2)c1 (single isomer, unassigned; isomer 2) [Example 2ag, (S or R) N-[2-(3,5-dimethyl-2-oxo-1,2-dihydropyridin-1-yl)-3-{[(CIS)-4-(3-fluorophenyl)cyclohexyl]oxy}propyl]methanesulfonamide-Isomer 2]
EC50: 1000 to 10000 nM

Cc1cc(Cl)cn(C(CNS(C)(=O)=O)CO[C@H]2CC[C@@H](c3cccc(F)c3)CC2)c1=O (single isomer, unassigned; isomer 2) [Example 2ai, (S or R) N-[2-(5-chloro-3-methyl-2-oxo-1,2-dihydropyridin-1-yl)-3-{[(CIS)-4-(3-fluorophenyl)cyclohexyl]oxy}propyl]methanesulfonamide-Isomer 2]
EC50: 1000 to 10000 nM

Cc1cc(C)c(=O)n(C(CNS(=O)(=O)C2CC2)CO[C@H]2CC[C@@H](c3cccc(F)c3)CC2)c1 (single isomer, unassigned; isomer 2) [Example 2an, (S or R) N-[2-(3,5-dimethyl-2-oxo-1,2-dihydropyridin-1-yl)-3-{[(CIS)-4-(3-fluorophenyl)cyclohexyl]oxy}propyl]cyclopropanesulfonamide-Isomer 2]
EC50: 1000 to 10000 nM
